# According to the supplement of paper PMC10307832:
# Assays:
# Test in all cases: relative viability (nuclei count vs DMSO), 5 days (fraction); higher = more cells survive
# NCI-H650 = tested on: NCI-H650
# Procedure, shortened: (§1)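 Relative viability equals treated-well nuclei counts divided by vehicle-well nuclei counts. Counts came from 4× images of lung cancer cell lines grown in 1536-well plates for 5 days after pin-tool dosing on the day after seeding. Dosing used one drug alone or a fixed anchor-drug dose plus five library-drug doses (not always all listed) in √10 steps, and values are medians of duplicate plates.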
# NCI-H1651 = tested on: NCI-H1651
# Procedure, shortened: as §1
# HOP-62 = tested on: HOP-62
# Procedure, shortened: as §1
# COR-L23 = tested on: COR-L23
# Procedure, shortened: as §1
# NCI-H2023 = tested on: NCI-H2023
# Procedure, shortened: as §1
# EPLC-272H = tested on: EPLC-272H
# Procedure, shortened: as §1
# UMC-11 = tested on: UMC-11
# Procedure, shortened: as §1
# PC-14 = tested on: PC-14
# Procedure, shortened: as §1
# NCI-H2085 = tested on: NCI-H2085
# Procedure, shortened: as §1
# SW 1573 = tested on: SW 1573
# Procedure, shortened: as §1
# HARA = tested on: HARA
# Procedure, shortened: as §1
# NCI-H838 = tested on: NCI-H838
# Procedure, shortened: as §1
smiles,measurement,setting,value
O=c1cc(-c2cccc3c2Sc2ccccc2S3)oc(N2CCOCC2)c1 + Cc1nc(NC(=O)N2CCC[C@H]2C(N)=O)sc1-c1ccnc(C(C)(C)C(F)(F)F)c1 [Alpelisib] (partner 2 µM),relative viability,NCI-H650; first compound 0.08 µM,1.1
same,relative viability,NCI-H650; first compound 0.253 µM,1.17
same,relative viability,NCI-H650; first compound 0.8 µM,1.11
same,relative viability,NCI-H650; first compound 2.53 µM,1.07
same,relative viability,NCI-H650; first compound 8 µM,1.08
same,relative viability,NCI-H1651; first compound 0.08 µM,1.02
same,relative viability,NCI-H1651; first compound 0.253 µM,1.02
same,relative viability,NCI-H1651; first compound 0.8 µM,1.08
same,relative viability,NCI-H1651; first compound 2.53 µM,0.963
same,relative viability,NCI-H1651; first compound 8 µM,1.21
same,relative viability,HOP-62; first compound 0.08 µM,0.962
same,relative viability,HOP-62; first compound 0.253 µM,0.85
same,relative viability,HOP-62; first compound 0.8 µM,1.01
same,relative viability,HOP-62; first compound 2.53 µM,0.908
same,relative viability,HOP-62; first compound 8 µM,1.18
same,relative viability,COR-L23; first compound 0.08 µM,0.867
same,relative viability,COR-L23; first compound 0.253 µM,1.15
same,relative viability,COR-L23; first compound 0.8 µM,0.887
same,relative viability,COR-L23; first compound 2.53 µM,0.786
same,relative viability,COR-L23; first compound 8 µM,0.984
same,relative viability,NCI-H2023; first compound 0.08 µM,0.593
same,relative viability,NCI-H2023; first compound 0.253 µM,0.82
same,relative viability,NCI-H2023; first compound 0.8 µM,0.59
same,relative viability,NCI-H2023; first compound 2.53 µM,0.57
same,relative viability,NCI-H2023; first compound 8 µM,0.49
same,relative viability,EPLC-272H; first compound 0.08 µM,0.966
same,relative viability,EPLC-272H; first compound 0.253 µM,1.11
same,relative viability,EPLC-272H; first compound 0.8 µM,0.987
same,relative viability,EPLC-272H; first compound 2.53 µM,0.86
same,relative viability,EPLC-272H; first compound 8 µM,0.929
same,relative viability,UMC-11; first compound 0.08 µM,0.965
same,relative viability,UMC-11; first compound 0.253 µM,1.35
same,relative viability,UMC-11; first compound 0.8 µM,1.17
same,relative viability,UMC-11; first compound 2.53 µM,0.98
same,relative viability,UMC-11; first compound 8 µM,1.42
same,relative viability,PC-14; first compound 0.08 µM,0.936
same,relative viability,PC-14; first compound 0.253 µM,1.17
same,relative viability,PC-14; first compound 0.8 µM,1.11
same,relative viability,PC-14; first compound 2.53 µM,0.821
same,relative viability,PC-14; first compound 8 µM,1.05
same,relative viability,NCI-H2085; first compound 0.08 µM,0.907
same,relative viability,NCI-H2085; first compound 0.253 µM,0.93
same,relative viability,NCI-H2085; first compound 0.8 µM,1.05
same,relative viability,NCI-H2085; first compound 2.53 µM,0.779
same,relative viability,NCI-H2085; first compound 8 µM,0.72
same,relative viability,SW 1573; first compound 0.08 µM,0.719
same,relative viability,SW 1573; first compound 0.253 µM,0.785
same,relative viability,SW 1573; first compound 0.8 µM,0.667
same,relative viability,SW 1573; first compound 2.53 µM,0.803
same,relative viability,SW 1573; first compound 8 µM,0.657
same,relative viability,HARA; first compound 0.08 µM,0.754
same,relative viability,HARA; first compound 0.253 µM,0.748
same,relative viability,HARA; first compound 0.8 µM,0.719
same,relative viability,HARA; first compound 2.53 µM,0.81
same,relative viability,HARA; first compound 8 µM,0.584
same,relative viability,NCI-H838; first compound 0.08 µM,0.967
same,relative viability,NCI-H838; first compound 0.253 µM,1.33
